Where two headings read alike, the source gives them in different places.
Molecular target: USP7 (Homo sapiens (Human), UniProt Q93009)
Assay: USP7 fluorescence polarisation (FP) assay with ubiquitin-Lys-TAMRA substrate
Type: biochemical
Settings: biochemical inhibition
Procedure: USP7 activity was monitored in a fluorescence polarisation (FP) homogeneous assay using the isopeptide ubiquitin-Lys-TAMRA substrate (U-558, Boston Biochem). Full-length USP7 was purchased from Boston Biochem (His6-USP7FL, E-519). Unless otherwise stated, all other reagents were purchased from Sigma-Aldrich. Enzymatic reactions were conducted in black flat-bottom low volume polystyrene 384-well plates (Grenier) and 15 μL total volume. USP7 (2.5 nM, 5 μL) was incubated in assay buffer (50 mM HEPES (pH 7.2), 150 mM NaCl, 5 mM DTT, 0.05% BSA (w/v), 0.05% CHAPS) in the presence or absence of inhibitor (5 μL). Inhibitors were stored as 10 mM DMSO stocks in an inert environment (low humidity, dark, low oxygen, room temperature) using a Storage Pod System and serial dilutions were prepared in buffer just prior to the assay (from 200 to 0.003 μM, 11 dp curve). Following incubation at room temperature for 30 min, the enzymatic reactions were initiated by dispensing the Ub substrate (50 nM, 5 μL). FP was measured every 5 min over a period of 1.5 h (within the linear range of the assay) using a Pherastar FSX (BMG Labtech) exciting at 530 nm and measuring the amount of parallel and perpendicular light at 575 nm. The FP signal was subsequently normalised to the control without compound present. Data were plotted and fitted, and the concentrations resulting in 50% inhibition (IC50) were calculated using the non-linear regression curve fitting model using GraphPad Prism.

[1] = read-out: USP7 IC50 activity (Table 3a, classes)
[2] = unit not given in Table 3b (Table 1 and key of Table 3a use μM), read-out: USP7 IC50 activity (Table 3b)

Sequence of USP7 (Q93009 whole entry): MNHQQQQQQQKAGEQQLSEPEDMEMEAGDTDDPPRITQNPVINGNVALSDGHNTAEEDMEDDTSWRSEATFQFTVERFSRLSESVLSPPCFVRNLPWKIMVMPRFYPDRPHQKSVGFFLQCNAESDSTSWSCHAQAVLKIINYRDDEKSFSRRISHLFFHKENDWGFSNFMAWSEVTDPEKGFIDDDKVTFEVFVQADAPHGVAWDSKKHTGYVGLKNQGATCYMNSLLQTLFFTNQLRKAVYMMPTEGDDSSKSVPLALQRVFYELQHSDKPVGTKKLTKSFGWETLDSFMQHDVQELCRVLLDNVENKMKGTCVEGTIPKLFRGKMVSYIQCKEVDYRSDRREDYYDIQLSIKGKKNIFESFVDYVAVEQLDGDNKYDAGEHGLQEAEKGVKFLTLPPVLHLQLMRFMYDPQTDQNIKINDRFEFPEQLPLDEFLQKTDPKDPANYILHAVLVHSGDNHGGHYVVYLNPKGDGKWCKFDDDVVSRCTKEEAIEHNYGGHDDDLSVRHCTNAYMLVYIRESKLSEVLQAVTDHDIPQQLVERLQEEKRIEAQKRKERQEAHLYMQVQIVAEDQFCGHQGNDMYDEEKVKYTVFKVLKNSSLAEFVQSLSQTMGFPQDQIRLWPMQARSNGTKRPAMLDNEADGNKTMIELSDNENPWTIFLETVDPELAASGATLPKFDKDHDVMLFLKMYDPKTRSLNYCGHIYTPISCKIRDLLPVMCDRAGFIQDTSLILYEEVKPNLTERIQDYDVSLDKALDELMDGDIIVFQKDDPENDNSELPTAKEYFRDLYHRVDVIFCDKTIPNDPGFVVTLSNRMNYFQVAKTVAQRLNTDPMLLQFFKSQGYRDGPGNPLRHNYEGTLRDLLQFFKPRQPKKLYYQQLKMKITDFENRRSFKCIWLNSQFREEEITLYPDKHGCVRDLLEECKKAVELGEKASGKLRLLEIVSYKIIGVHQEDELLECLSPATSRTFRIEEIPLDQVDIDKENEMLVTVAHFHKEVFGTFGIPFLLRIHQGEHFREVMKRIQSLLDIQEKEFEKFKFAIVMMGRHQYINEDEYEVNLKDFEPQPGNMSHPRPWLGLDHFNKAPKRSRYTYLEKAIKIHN

Row | Compound | IC50 [1] | IC50 [2]
1 | CC1(C)COCC(c2ccc(-n3c(Cl)cc4c(=O)n(CC5(O)CCN(C(=O)C6(C)CC6)CC5)cnc43)cc2)N1 (stereo not shown) [Example 15, 6-Chloro-7-(4-(5,5-dimethylmorpholin-3-yl)phenyl)-3-((4-hydroxy-1-(1-methylcyclopropane-1-carbonyl)piperidin-4-yl)methyl)-3,7-dihydro-4H-pyrrolo[2,3-d]pyrimidin-4-one] | 0.1 to 0.25 µM | 0.169 µM
2 | CC1(C)COCC(c2ccc(-n3c(Cl)cc4c(=O)n(CC5(O)CCN(C(=O)c6ccc(Cl)cc6)CC5)cnc43)cc2)N1 (stereo not shown) [Example 16, 6-Chloro-3-((1-(4-chlorobenzoyl)-4-hydroxypiperidin-4-yl)methyl)-7-(4-(5,5-dimethylmorpholin-3-yl)phenyl)-3,7-dihydro-4H-pyrrolo[2,3-d]pyrimidin-4-one] | 0.1 to 0.25 µM | 0.249 µM
3 | O=C(c1ccc(Cl)cc1)N1CCC(O)(Cn2cnc3c(cc(Cl)n3-c3ccc(C4COCC5(CC5)N4)cc3)c2=O)CC1 (stereo not shown) [Example 18, 7-(4-(7-Oxa-4-azaspiro[2.5]octan-5-yl)phenyl)-6-chloro-3-((1-(4-chlorobenzoyl)-4-hydroxypiperidin-4-yl)methyl)-3,7-dihydro-4H-pyrrolo[2,3-d]pyrimidin-4-one] | 0.25 to 2 µM | 0.378 µM
4 | CC1(C(=O)N2CCC(O)(Cn3cnc4c(cc(Cl)n4-c4ccc(C5COCC6(CC6)N5)cc4)c3=O)CC2)CC1 (stereo not shown) [Example 19, 7-(4-(7-Oxa-4-azaspiro[2.5]octan-5-yl)phenyl)-6-chloro-3-((4-hydroxy-1-(1-methylcyclopropane-1-carbonyl)piperidin-4-yl)methyl)-3,7-dihydro-4H-pyrrolo[2,3-d]pyrimidin-4-one] | 0.25 to 2 µM | 0.372 µM
5 | C[C@H]1CN[C@H](c2ccc(-n3c(Cl)cc4c(=O)n(CC5(O)CCN(C(=O)c6ccccc6)CC5)cnc43)cc2)CO1 [Example 20, 3-((1-Benzoyl-4-hydroxypiperidin-4-yl)methyl)-6-chloro-7-(4-((3R,6S)-6-methylmorpholin-3-yl)phenyl)-3,7-dihydro-4H-pyrrolo[2,3-d]pyrimidin-4-one] | 0.25 to 2 µM | 0.379 µM
6 | C[C@H]1CN[C@H](c2ccc(-n3c(Cl)cc4c(=O)n(CC5(O)CCN(C(=O)c6ccc(F)cc6F)CC5)cnc43)cc2)CO1 [Example 22, 6-Chloro-3-((1-(2,4-difluorobenzoyl)-4-hydroxypiperidin-4-yl)methyl)-7-(4-((3R,6S)-6-methylmorpholin-3-yl)phenyl)-3,7-dihydro-4H-pyrrolo[2,3-d]pyrimidin-4-one] | 0.1 to 0.25 µM | 0.222 µM
7 | C[C@@H]1CN[C@@H](c2ccc(-n3c(Cl)cc4c(=O)n(CC5(O)CCN(C(=O)c6ccccc6)CC5)cnc43)cc2)CO1 [Example 24, 3-((1-Benzoyl-4-hydroxypiperidin-4-yl)methyl)-6-chloro-7-(4-((3S,6R)-6-methylmorpholin-3-yl)phenyl)-3,7-dihydro-4H-pyrrolo[2,3-d]pyrimidin-4-one] | 0.1 to 0.25 µM | 0.25 µM
8 | C[C@@H]1CN[C@@H](c2ccc(-n3c(Cl)cc4c(=O)n(CC5(O)CCN(C(=O)c6ccc(F)cc6)CC5)cnc43)cc2)CO1 [Example 25, 6-Chloro-3-((1-(4-fluorobenzoyl)-4-hydroxypiperidin-4-yl)methyl)-7-(4-((3S,6R)-6-methylmorpholin-3-yl)phenyl)-3,7-dihydro-4H-pyrrolo[2,3-d]pyrimidin-4-one] | 0.1 to 0.25 µM | 0.147 µM

Results, then the molecule that gave them:

Row | IC50 [1] | IC50 [2] | Compound
9 | 0.1 to 0.25 µM | 0.164 µM | C[C@H]1CN[C@H](c2ccc(-n3c(Cl)cc4c(=O)n(CC5(O)CCN(C(=O)c6ccc(Cl)cc6F)CC5)cnc43)cc2)CO1 [Example 30, 6-Chloro-3-((1-(4-chloro-2-fluorobenzoyl)-4-hydroxypiperidin-4-yl)methyl)-7-(4-((3R,6S)-6-methylmorpholin-3-yl)phenyl)-3,7-dihydro-4H-pyrrolo[2,3-d]pyrimidin-4-one]
10 | 0.1 to 0.25 µM | 0.144 µM | C[C@H]1CN[C@H](c2ccc(-n3c(Cl)cc4c(=O)n(CC5(O)CCN(C(=O)c6ccccc6Cl)CC5)cnc43)cc2)CO1 [Example 31, 6-Chloro-3-((1-(2-chlorobenzoyl)-4-hydroxypiperidin-4-yl)methyl)-7-(4-((3R,6S)-6-methylmorpholin-3-yl)phenyl)-3,7-dihydro-4H-pyrrolo[2,3-d]pyrimidin-4-one]
11 | 0.1 to 0.25 µM | 0.224 µM | C[C@H]1CN[C@H](c2ccc(-n3c(Cl)cc4c(=O)n(CC5(O)CCN(C(=O)c6cccc(Cl)c6)CC5)cnc43)cc2)CO1 [Example 35, 6-Chloro-3-((1-(3-chlorobenzoyl)-4-hydroxypiperidin-4-yl)methyl)-7-(4-((3R,6S)-6-methylmorpholin-3-yl)phenyl)-3,7-dihydro-4H-pyrrolo[2,3-d]pyrimidin-4-one]
12 | 0.25 to 2 µM | 0.511 µM | C[C@H]1CN[C@H](c2ccc(-n3c(Cl)cc4c(=O)n(CC5(O)CCN(C(=O)c6ccccc6F)CC5)cnc43)cc2)CO1 [Example 36, 6-Chloro-3-((1-(2-fluorobenzoyl)-4-hydroxypiperidin-4-yl)methyl)-7-(4-((3R,6S)-6-methylmorpholin-3-yl)phenyl)-3,7-dihydro-4H-pyrrolo[2,3-d]pyrimidin-4-one]
13 | 0.25 to 2 µM | 0.254 µM | C[C@H]1CN[C@H](c2ccc(-n3c(Cl)cc4c(=O)n(CC5(O)CCN(C(=O)c6ccc(F)c(F)c6)CC5)cnc43)cc2)CO1 [Example 37, 6-Chloro-3-((1-(3,4-difluorobenzoyl)-4-hydroxypiperidin-4-yl)methyl)-7-(4-((3R,6S)-6-methylmorpholin-3-yl)phenyl)-3,7-dihydro-4H-pyrrolo[2,3-d]pyrimidin-4-one]
14 | 0.25 to 2 µM | 0.302 µM | C[C@H]1CN[C@H](c2ccc(-n3c(Cl)cc4c(=O)n(CC5(O)CCN(C(=O)c6cccc(F)c6)CC5)cnc43)cc2)CO1 [Example 38, 6-Chloro-3-((1-(3-fluorobenzoyl)-4-hydroxypiperidin-4-yl)methyl)-7-(4-((3R,6S)-6-methylmorpholin-3-yl)phenyl)-3,7-dihydro-4H-pyrrolo[2,3-d]pyrimidin-4-one]
15 | 0.25 to 2 µM | 1.15 µM | C[C@H]1CN[C@H](c2ccc(-n3c(Cl)cc4c(=O)n(CC5(O)CCN(C(=O)c6cccc(F)c6F)CC5)cnc43)cc2)CO1 [Example 39, 6-Chloro-3-((1-(2,3-difluorobenzoyl)-4-hydroxypiperidin-4-yl)methyl)-7-(4-((3R,6S)-6-methylmorpholin-3-yl)phenyl)-3,7-dihydro-4H-pyrrolo[2,3-d]pyrimidin-4-one]
16 | < 0.1 µM | 0.091 µM | C[C@H]1CN[C@H](c2ccc(-n3c(Cl)cc4c(=O)n(CC5(O)CCN(C(=O)C6(C7CC7)CC6)CC5)cnc43)cc2)CO1 [Example 42, 3-((1-([1,1′-Bi(cyclopropane)]-1-carbonyl)-4-hydroxypiperidin-4-yl)methyl)-6-chloro-7-(4-((3R,6S)-6-methylmorpholin-3-yl)phenyl)-3,7-dihydro-4H-pyrrolo[2,3-d]pyrimidin-4-one]
17 | 0.1 to 0.25 µM | 0.176 µM | CC[C@H]1CN[C@H](c2ccc(-n3c(Cl)cc4c(=O)n(CC5(O)CCN(C(=O)c6ccc(F)cc6)CC5)cnc43)cc2)CO1 [Example 45, 6-Chloro-7-(4-((3R,6S)-6-ethylmorpholin-3-yl)phenyl)-3-((1-(4-fluorobenzoyl)-4-hydroxypiperidin-4-yl)methyl)-3,7-dihydro-4H-pyrrolo[2,3-d]pyrimidin-4-one]
